Measurements reported in patent US20120107932A1, “PRRS-VIRUS RECEPTOR AND ITS INHIBITOR” (priority 2009, published 2012).

Columns and labels:
[1] = tested on: MA-104 and PAM cells; assay: Effects of blebbistatin on cells (cytopathic effects, CPE); assay type: cell-based; conditions: Table 4, Marc-145 and PAM cells
Description: Marc-145 and PAM cells (10^5 cells/ml) are cultured on DMEM medium (containing 100 U/ml penicillin, 50 μg/ml streptomycin sulphate, 50 μg/ml gentamycin and 10% calf serum) in an incubator under 37[…] and 5% CO2 to form monolayer. Dissolve (±)-blebbistatin, (S)-(−)-blebbistatin and (R)-(+)-blebbistatin (purchased from Tocris Cookson, Inc. [US]) in DMSO, then perform multiple-proportion dilution with PBS, add a monolayer culture plate and continuously culture it to observe cytopathic effects (CPE). Under a conventional microscope, CPE is observed as rough cell surface, strong refractivity, and finally cell shedding. […] Therefore, (+)-blebbistatin can be used as a PRRSV-receptor blocker.

[2] = tested on: MA-104 and PAM cells; assay: as above; assay type: cell-based
[3] = tested on: NMM-II ATPase; conditions: vertebrate cells; Straight et al. Science 2003; cited from earlier work
[4] = tested on: PRRSV; assay: PRRSV-receptor blocking test (CPE caused by PRRSV in Marc-145 and PAM cells); assay type: cell-based; design: key to Inhibition levels of CPE: “−” means no CPE; “+” means CPE in 25% cells; “++” means CPE in 50% cells; “+++” means CPE in above 75% cells; conditions: for Inhibition levels of CPE: PRRSV 10^3TCID50/ml, Marc-145 and PAM cells
Description: Marc-145 and PAM cells (10^5 cells/ml) are cultured on DMEM medium (containing 100 U/ml penicillin, 50 μg/ml streptomycin sulphate, 50 μg/ml gentamycin and 10% calf serum) in an incubator under 37 □ and 5% CO2 to form monolayer. Dissolve the NMHC II-A protein, artificially synthesized polypeptides, serum antibodies and (+)-blebbistatin obtained by using the methods of Implementation Examples 1, 2 and 4 in the DMEM medium; after de-germing by filtration, mix with PRRSV strains under different fixation concentrations (10^3TCID50/ml) and incubate an hour, and then add the cells above; perform eight repetitions for each dilution; after adsorption at 37 °C for an hour, remove the mixture, add DMEM medium and culture continuously; and observe CPE daily. The CPE manifestations caused by PRRSV infection include rough cell surface, strong refractivity, and finally cell shedding. The results in Table 5 illustrate the CPE inhibition levels of the NMHC II-A protein, artificially synthesized polypeptides, serum antibodies and (+)-blebbistatin under the each-well concentration of μg, μg, μL and μM in turn. The judgment results of cell CPE are expressed as follows: “−” means no CPE, “+” means CPE in 25% cells, “++” means CPE in 50% cells, and “+++” means CPE in above 75% cells.

[5] = tested on: NMM-II; conditions: Straight et al. Science 2003; cited from earlier work
[6] = tested on: MA-104 and PAM cells; assay: Indirect immunofluorescence assay (IFA), serum antibodies binding to cells; assay type: cell-based; conditions: serum of mice after third immunization with the named antigen
Description: Indirect immunofluorescence assay (IFA): After dilution, combine the mouse anti-NMHC II-A protein and anti-polypeptide antibodies after immunization three times with MA-104 and PAM monolayer cells for 0.5-2 hours, then bind the goat anti-mouse IgG testing antibody labeled with fluorescence to the cells.

[7] = dilution 1/40, MA-104 and PAM cells
[8] = dilution 1/80, MA-104 and PAM cells
[9] = dilution 1/160, MA-104 and PAM cells
[10] = dilution 1/320, MA-104 and PAM cells

Molecule	effect on cell proliferation and CPE [1]	blebbistatin causing CPE or not (Yes or No) ([2]; 1 μM)	blebbistatin causing CPE or not (Yes or No) ([2]; 2 μM)	blebbistatin causing CPE or not (Yes or No) ([2]; 5 μM)	blebbistatin causing CPE or not (Yes or No) ([2]; 10 μM)	blebbistatin causing CPE or not (Yes or No) ([2]; 20 μM)	blebbistatin causing CPE or not (Yes or No) ([2]; 50 μM)	blebbistatin causing CPE or not (Yes or No) ([2]; 100 μM)	Inhibition levels of CPE ([4]; 1 μg per well)	Inhibition levels of CPE ([4]; 2 μg per well)	Inhibition levels of CPE ([4]; 5 μg per well)	Inhibition levels of CPE ([4]; 10 μg per well)	Inhibition levels of CPE ([4]; 20 μg per well)	Inhibition levels of CPE ([4]; 50 μg per well)	Inhibition levels of CPE ([4]; 100 μg per well)	inhibition of the cell CPE caused by PRRSV ([4]; at 2 μg-100 μg/well)	Cell-bound serum (with or without fluorescence) [6, 7]	Cell-bound serum (with or without fluorescence) [6, 8]	Cell-bound serum (with or without fluorescence) [6, 9]	Cell-bound serum (with or without fluorescence) [6, 10]	other results
Cc1ccc2c(c1)C(=O)C1(O)CCN(c3ccccc3)C1=N2 (racemic) [(±)-blebbistatin]	can inhibit cell proliferation and cause CPE	Yes	Yes	Yes	Yes	Yes	Yes	Yes													inhibition of NMM-II ATPase activity [3]: selective inhibitor
Cc1ccc2c(c1)C(=O)[C@@]1(O)CCN(c3ccccc3)C1=N2 [(+)-blebbistatin, (R)-(+)-blebbistatin, reference compound]	does not inhibit cell proliferation and does not cause CPE	No	No	No	No	No	No	No													Inhibition levels of CPE ([4]; 1 μM per well): + (“+” means CPE in 25% cells); Inhibition levels of CPE ([4]; 2 μM per well): −; Inhibition levels of CPE ([4]; 5 μM per well): −; Inhibition levels of CPE ([4]; 10 μM per well): −; Inhibition levels of CPE ([4]; 20 μM per well): −; Inhibition levels of CPE ([4]; 50 μM per well): −; Inhibition levels of CPE ([4]; 100 μM per well): −; inhibition of the cell CPE caused by PRRSV ([4]; at 2 μM-100 μM/well): fully inhibit; blocking of PRRSV strains from infecting cells ([4]; classic American strains (VR-2332), Chinese isolates (Ch-1a), highly pathogenic strains (JXA-1)): block the classic American strains, Chinese isolates and highly pathogenic strains of PRRSV from infecting cells; inhibition of NMM-II-dependent cellular division and proliferation [5]: does not inhibit
Cc1ccc2c(c1)C(=O)[C@]1(O)CCN(c3ccccc3)C1=N2 [(S)-(−)-blebbistatin]	can inhibit cell proliferation and cause CPE	Yes	Yes	Yes	Yes	Yes	Yes	Yes													
Polypeptide (Seq ID No: 2): NMHC II-A artificial polypeptide, amino-acid sequence Seq ID No: 2 (GAGDGSDEE)									++ (“++” means CPE in 50% cells)	−	−	−	−	−	−	fully inhibit	Yes	Yes	Yes	Yes	
Polypeptide (Seq ID No: 3): NMHC II-A artificial polypeptide, amino-acid sequence Seq ID No: 3 (GAGDGSDEEVDGKA)									++ (“++” means CPE in 50% cells)	−	−	−	−	−	−	fully inhibit	Yes	Yes	Yes	Yes	
Polypeptide (Seq ID No: 4): NMHC II-A artificial polypeptide, amino-acid sequence Seq ID No: 4 (KADGAEAKPAE)									++ (“++” means CPE in 50% cells)	−	−	−	−	−	−	fully inhibit	Yes	Yes	Yes	Yes	
